The target in the first test is T1, KRAS G12C 1-169, his-tagged protein, GDP-loaded (Homo sapiens, UniProt P01116, G12C).
T1 construct: KRAS G12C 1-169, his-tagged protein, GDP-loaded
In words: Covalent binding (% modification) to KRAS G12C by mass spectrometry. The conditions noted are these: covalent binding to KRAS G12C after a ten minute incubation period. The procedure:
Test compounds were prepared as 10 mM stock solutions in DMSO (Fisher cat # BP-231-100). KRAS G12C 1-169, his-tagged protein, GDP-loaded was diluted to 2 μm in buffer (20 mM Hepes, 150 mM NaCl, 1 mM MgCl2). Compounds were tested for activity as follows:
Compounds were diluted to 50× final test concentration in DMSO in 96-well storage plates. Compound stock solutions were vortexed before use and observed carefully for any sign of precipitation. Dilutions were as follow: • For 100 μM final compound concentration, compounds were diluted to 5000 μM (5 μl 10 mM compound stock+5 μl DMSO and mixed well by pipetting. • For 30 μM final compound concentration, compounds were diluted to 1500 μM (3 μl 10 mM compound stock+17 μl DMSO) and mixed well by pipetting. • For 10 μM final compound concentration, compounds were diluted to 500 μM (2 μl 10 mM compound stock+38 μl DMSO) and mixed well by pipetting. 49 μl of the stock protein solution was added to each well of a 96-well PCR plate (Fisher cat #1423027). 1 μl of the diluted 50× compounds were added to appropriate wells in the PCR plate using 12-channel pipettor. Reactions were mixed carefully and thoroughly by pipetting up/down with a 200·1 multi-channel pipettor. […] 5 μl of 2% formic acid (Fisher cat # A117) in DI H2O was then added to each well followed by mixing with a pipette. The plate was then resealed with aluminum seal and stored on dry ice until analyzed as described below.
The above described assays were analyzed by mass spectrometry according to one of the following two procedures:
The MS instrument is set to positive polarity, 2 GHz resolution, and low mass (1700) mode and allowed to equilibrate for 30 minutes. The instrument is then calibrated, switched to acquisition mode and the appropriate method loaded.
After another 30 minute equilibration time, a blank batch (i.e., buffer) is run to ensure equipment is operating properly. The samples are thawed at 37° C. for 10 minutes, briefly centrifuged, and transfer to the bench top. Wells A1 and H12 are spiked with 1 uL 500 uM internal standard peptide, and the plates centrifuged at 2000×g for 5 minutes. The method is then run and masses of each individual well recorded.
The masses (for which integration data is desired) for each well are pasted into the platemap and exported from the analysis. Masses for the internal standards are exported as well. The data at 50 ppm is extracted for the +19 charge state, and identity of well A1 is assigned using the internal standard spike and integrated. Peak data is exported as a TOF list and the above steps are repeated individually, for the +20, 21, 22, 23, 24, and 25 charge states.
The masses and peak intensities of KRAS G12C protein species were measured using a Dionex RSLCnano system (Thermo Scientific) connected to a Q Exactive Plus mass spectrometer (Thermo Scientific).
[…] of sample was each loaded onto a Aeris™ 3.6 μm WIDEPORE C4 200 Å, LC Column 50×2.1 mm column maintained at 40° C. at a flow rate of 600 μl min^−1 with […] (0.1% formic acid in acetonitrile). The liquid chromatography conditions were 20% solvent B for 1 min, 20% to 60% solvent B for 1.5 min, 60% to 90% solvent for 0.5 min, 90% solvent B for 0.2 min, 90% to 20% solvent B for 0.2 min, and then equilibrated for 1.6 min before the following sample injection. The flow rate was maintained at 600 μl min^−1 throughout the sample analysis.
The mass spectrometer was operated in profile mode at a resolution of 17500, 5 microscans, using 50 msec max injection time and an AGC target of 1e6, and a full mass range from 800-1850 m/z was recorded. The HCD trapping gas was optimized for maximum sensitivity for intact proteins. The ionization method was electrospray ionization, which used a spray voltage of 4 kV, sheath gas flow set to 50 au, auxiliary gas flow set to 10 au and sweep gas flow set to 1 au. […]
As for `C=CC(=O)N1[C@H](C)CN(c2nc(N3CC(N(C)C)C3)nc3c(F)c(-c4c(O)cccc4F)c(Cl)cc23)C[C@@H]1C` [Compound 67, 1-((2R,6S)-4-((S)-6-chloro-2-(3-(dimethylamino)azetidin-1-yl)-8-fluoro-7-(2-fluoro-6-hydroxyphenyl)quinazolin-4-yl)-2,6-dimethyl-piperazin-1-yl) prop-2-en-1-one], the Binding % result is listed as “+ (+ indicates binding activity up to 50%)”. The same measure, in the same setting: for `C=CC(=O)N1C[C@@H](C)N(c2nc(OCCN3CC(F)(F)C3)nc3c(F)c(-c4c(O)cccc4F)c(Cl)cc23)[C@@H](C)C1` [Compound 22, 1-((3S,5R)-4-(6-chloro-2-(2-(3,3-difluoroazetidin-1-yl)ethoxy)-8-fluoro-7-(2-fluoro-6-hydroxyphenyl)quinazolin-4-yl)-3,5-dimethyl-piperazin-1-yl) prop-2-en-1-one] the value was “++ (++ indicates binding activity from 50 to 90%)”; for `C=CC(=O)N1[C@H](C)CN(c2nc(N)nc3c(F)c(-c4c(C)ccc5cn[nH]c45)c(Cl)cc23)C[C@@H]1C` [Compound 6, 1-((2S,6R)-4-(2-amino-6-chloro-8-fluoro-7-(6-methyl-1H-indazol-7-yl)quinazolin-4-yl)-2,6-dimethyl-piperazin-1-yl) prop-2-en-1-one], “++ (++ indicates binding activity from 50 to 90%)”.

In the case of `C=CC(=O)N1C[C@@H](C)N(c2nc(N3CC(CO)C3)nc3c(F)c(-c4c(O)cccc4F)c(Cl)cc23)[C@@H](C)C1` [Compound 64, 1-((3R,5S)-4-(6-chloro-8-fluoro-7-(2-fluoro-6-hydroxyphenyl)-2-(3-(hydroxy-methyl)azetidin-1-yl)quinazolin-4-yl)-3,5-dimethyl-piperazin-1-yl) prop-2-en-1-one], the Binding % result is recorded as “++ (++ indicates binding activity from 50 to 90%)”. The same measure, in the same setting: next, `C=CC(=O)N1CCN(c2nc(N)nc3c(F)c(-c4cc(O)cc5ccccc45)c(Cl)cc23)[C@@H](C)C1` [Compound 12, 1-((3 S)-4-(2-Amino-6-Chloro-8-Fluoro-7-(3-Hydroxynaphthalen-1-Yl)Quinazolin-4-Yl)-3-Methylpiperazin-1-Yl)Prop-2-En-1-One]: “+++ (+++ indicates binding activity greater than 90%)”. The same measure, in the same setting: for `C=CC(=O)N1CCN(c2nc(N)nc3c(F)c(-c4c(C)ccc5[nH]ncc45)c(Cl)cc23)[C@@H](C)C1` [Compound 10, 1-((3S)-4-(2-amino-6-chloro-8-fluoro-7-(5-methyl-1H-indazol-4-yl)quinazolin-4-yl)-3-methyl-piperazin-1-yl) prop-2-en-1-one] the value was “+++ (+++ indicates binding activity greater than 90%)”.

The test is the same for the next values; noted with them: covalent binding to KRAS G12C after a three minute incubation period.
On to `C=CC(=O)N1C[C@H](C)N(c2nc(OCCN3CC(F)(F)C3)nc3c(F)c(-c4cc(O)cc5ccccc45)c(Cl)cc23)C[C@H]1C` [Compound 169, 1-((2R,5S)-4-(6-chloro-2-(2-(3,3-difluoroazetidin-1-yl)ethoxy)-8-fluoro-7-(3-hydroxynaphthalen-1-yl)quinazolin-4-yl)-2,5-dimethyl-piperazin-1-yl) prop-2-en-1-one], for which the Binding % result was “++ (++ indicates binding activity from 50 to 90%)”. On the same count and under the same terms, for `C=CC(=O)N1C[C@H](C)N(c2nc(N3CC(N(C)C)C3)nc3c(F)c(-c4cc(O)cc5ccccc45)c(Cl)cc23)C[C@H]1C` (atropisomer, axis not shown) [Compound 220, 1-((2R,5S)-4-(6-chloro-2-(3-(dimethylamino)azetidin-1-yl)-8-fluoro-7-((R)-3-hydroxynaphthalen-1-yl)quinazolin-4-yl)-2,5-dimethyl-piperazin-1-yl) prop-2-en-1-one] the value was “+ (+ indicates binding activity greater than 0% and up to 50%)”; for `C=CC(=O)N1C[C@H](C)N(c2nc(N3CC(N(C)C)C3)nc3c(F)c(-c4c(C)ccc5[nH]ncc45)c(Cl)cc23)C[C@H]1C` (atropisomer, axis not shown) [Compound 131, 1-((2R,5S)-4-(6-chloro-2-(3-(dimethylamino)azetidin-1-yl)-8-fluoro-7-((S)-5-methyl-1H-indazol-4-yl)quinazolin-4-yl)-2,5-dimethyl-piperazin-1-yl) prop-2-en-1-one], “+ (+ indicates binding activity greater than 0% and up to 50%)”; for `CC(C)/C=C(\C#N)C(=O)N1C[C@H](C)N(c2nc(N3CC(N(C)C)C3)nc3c(F)c(-c4c(O)cccc4F)c(Cl)cc23)C[C@H]1C` [Compound 101, (E)-2-((2R,5S)-4-(6-chloro-2-(3-(dimethylamino)azetidin-1-yl)-8-fluoro-7-(2-fluoro-6-hydroxyphenyl)quinazolin-4-yl)-2,5-dimethyl-piperazine-1-carbonyl)-4-methylpent-2-enenitrile], “+ (+ indicates binding activity greater than 0% and up to 50%)”. On the same count and under the same terms, next, `C=CC(=O)N1C[C@H](C)N(c2nc(N3CC4(CCCN(C)C4)C3)nc3c(F)c(-c4c(O)cccc4F)c(Cl)cc23)C[C@H]1C` [Compound 183, 1-((2R,5S)-4-(6-chloro-8-fluoro-7-(2-fluoro-6-hydroxyphenyl)-2-(6-methyl-2,6-diazaspiro[3.5]nonan-2-yl)quinazolin-4-yl)-2,5-dimethyl-piperazin-1-yl) prop-2-en-1-one]: “++ (++ indicates binding activity from 50 to 90%)”; `C=CC(=O)N1C[C@H](C)N(c2nc(OCCN3CC(F)(F)C3)nc3c(F)c(-c4c(O)cccc4F)c(Cl)cc23)C[C@H]1C` (atropisomer, axis not shown) [Compound 90, 1-((2R,5S)-4-(6-chloro-2-(2-(3,3-difluoroazetidin-1-yl)ethoxy)-8-fluoro-7-((S)-2-fluoro-6-hydroxyphenyl)quinazolin-4-yl)-2,5-dimethyl-piperazin-1-yl) prop-2-en-1-one]: “+++ (+++ indicates binding activity greater than 90%)”; `C=CC(=O)N1C[C@H](C)N(c2nc(N3CC4(CCCN4C)C3)nc3c(F)c(-c4c(O)cccc4F)c(Cl)cc23)C[C@H]1C` [Compound 177, 1-((2R,5S)-4-(6-chloro-8-fluoro-7-(2-fluoro-6-hydroxyphenyl)-2-(5-methyl-2,5-diazaspiro[3.4]octan-2-yl)quinazolin-4-yl)-2,5-dimethyl-piperazin-1-yl) prop-2-en-1-one]: “++ (++ indicates binding activity from 50 to 90%)”. On the same count and under the same terms, next, `C=CC(=O)N1C[C@H](C)N(c2nc(N3CC(N(C)C4CCC4)C3)nc3c(F)c(-c4c(O)cccc4F)c(Cl)cc23)C[C@H]1C` (atropisomer, axis not shown) [Compound 139, 1-((2R,5S)-4-(6-chloro-2-(3-(cyclobutyl (methyl)amino)azetidin-1-yl)-8-fluoro-7-((R)-2-fluoro-6-hydroxyphenyl)quinazolin-4-yl)-2,5-dimethyl-piperazin-1-yl) prop-2-en-1-one]: “+ (+ indicates binding activity greater than 0% and up to 50%)”; `C=CC(=O)N1C[C@H](C)N(c2nc(N3CC(NC)C3)nc3c(F)c(-c4c(C)ccc5cn[nH]c45)c(Cl)cc23)C[C@H]1C` [Compound 100, 1-((2R,5S)-4-(6-chloro-8-fluoro-7-(6-methyl-1H-indazol-7-yl)-2-(3-(methylamino)azetidin-1-yl)quinazolin-4-yl)-2,5-dimethyl-piperazin-1-yl) prop-2-en-1-one]: “++ (++ indicates binding activity from 50 to 90%)”.
